How the values were obtained:
RENCA tumour cells = assay: Antitumor activity, RENCA model; assay type: in vivo, mouse; details: D18 and D22, compared to untreated and vehicle groups, FIG. 3B
Method: Treatment schedule—The start of first dosing was considered as D0. On D0, non-engrafted mice were randomized according to their individual body weight into groups of 9 mice using Vivo manager® software (Biosystemes, Couternon, France). On D0, the mice received vehicle (culture medium) or bacterial strain (2×10^8 in 200 μL, PO). On D14, all mice were engrafted with RENCA tumour cells injected SC into the ventral surface of the lower flank as described below. Treatment with anti-CTLA-4 (10 mg/kg, IP) and anti-PDL1 (clone 10F.9G2, 10 mg/kg) was initiated when tumours reached a volume of 50-70 mm3.
Orthotopic induction of RENCA tumor cells in animals by SC injection—On D14, one million (1×10^6) RENCA tumor cells in 50 ΞL RPMI 1640 medium were transplanted via SC injection into the ventral surface of the lower flank of mice.
Euthanasia - Each mouse was euthanized when it reached a humane endpoint as described in section below, or after a maximum of 6 weeks post start of dosing.
Evaluation of tumour burden at euthanasia—At the time of termination, tumours were collected and their volume evaluated.
Clinical monitoring—The length and width of the tumour was measured twice a week with callipers and the volume of the tumour was estimated by this formula [52]: […]

immature dendritic cells = assay: Cytokine production in immature dendritic cells; assay type: cell-based; details: compared to the negative control, MRX518 10^7/ml, LPS 100 ng/ml, FIG. 4
Method: A monocyte population was isolated from peripheral blood mononuclear cells (PBMCs). The monocyte cells were subsequently differentiated into immature dendritic cells. The immature dendritic cells were plated out at 200,000 cells/well and incubated with MRX518 at a final concentration of 10^7/ml, with the optional addition of LPS at a final concentration of 100 ng/ml. The negative control involved incubating the cells with RPMI media alone and positive controls incubated the cells with LPS at a final concentration of 100ng/ml. The cytokine content of the cells was then analysed.

CC(=O)O[C@H]1C(=O)[C@@]2(C)[C@H]([C@H](OC(=O)c3ccccc3)[C@]3(O)C[C@H](OC(=O)[C@H](O)[C@@H](NC(=O)c4ccccc4)c4ccccc4)C(C)=C1C3(C)C)[C@]1(OC(C)=O)CO[C@@H]1C[C@@H]2O [Paclitaxel]
tumour size (RENCA tumour cells): (almost) complete reduction

lipopolysaccharide [LPS]
level of IL-6 (immature dendritic cells): increase
level of TNF-α (immature dendritic cells): increase
